Our source for the Emax and EC50 values is patent US20260176320A1, “MODULATORS OF G-PROTEIN COUPLED RECEPTORS” (priority 2018, published 2026).

SMILES strings stand for the structures. Where two headings read alike, the source gives them in different places. Numbered stars: 1 amine (or outer) side, 2 acyl side, 3 side chain; on linkers, the order of the positions; unused ones are H or OH. Square brackets hold non-standard residues; d marks the D form. Side chains are listed from the residue outwards. Peptide text beside a SMILES is read from it. * marks the point of attachment. Ala(1H-tetrazol-5-yl) = N[C@@H](Cc1nnn[nH]1)C(=O)O; γGlu = O=C(O)[C@H](CCC(=O)[*:2])N[*:1]; Palmitoyl = CCCCCCCCCCCCCCCC(=O)*; X6 = O=C(CSCC(=O)*)NCCN1CCCCC1=O; Aib = CC(C)(N)C(=O)O

Holding throughout (format): cell-based
Assay [1] addresses T1, GLP-1R (Homo sapiens, UniProt P43220). As to the kind of experiment: HitHunter cAMP assay (GLP-1R). As to conditions: Table 3A, cAMP; for Emax: read-out: (Emax) GLP-1R. The essentials:
(§1)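 Agonist stimulation lasts 30 min at room temperature on 10,000 cells per well, with phosphodiesterase blocked by 625 μM IBMX. Accumulated cAMP is quantified by competitive antibody luminescence after overnight development.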

A further assay addresses T2, GIP-R (Homo sapiens, UniProt P48546).
T2 sequence (P48546 22-466): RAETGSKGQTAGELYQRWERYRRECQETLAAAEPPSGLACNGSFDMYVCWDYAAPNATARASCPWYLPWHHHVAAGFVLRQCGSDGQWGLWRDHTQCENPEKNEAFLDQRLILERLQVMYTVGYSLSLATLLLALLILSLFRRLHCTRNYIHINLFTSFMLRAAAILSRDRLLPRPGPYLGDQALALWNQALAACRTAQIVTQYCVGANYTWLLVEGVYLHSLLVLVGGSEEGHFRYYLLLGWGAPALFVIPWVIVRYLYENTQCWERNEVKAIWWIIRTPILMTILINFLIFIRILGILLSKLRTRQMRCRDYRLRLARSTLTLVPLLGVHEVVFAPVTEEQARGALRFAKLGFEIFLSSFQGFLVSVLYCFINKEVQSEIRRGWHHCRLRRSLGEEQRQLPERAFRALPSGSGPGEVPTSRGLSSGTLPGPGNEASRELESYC
Nature of the assay: HitHunter cAMP assay (GIP-R). The conditions noted are these: Table 3A, cAMP; for Emax: read-out: (Emax) GIP-R. The essentials: as §1

Assay [2] deals with T1, GLP-1R. Nature of the assay: PathHunter β-arrestin assay. An outline of the steps:
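Recruitment of β-arrestin is measured by luminescence after cells, plated overnight, receive serially diluted agonist for 90 min at 37 °C in medium with 0.2% BSA. Detection reagent then develops for 3 h at room temperature, protected from light.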

[3] abbreviates: PathHunter β-arrestin assay, read-out: β-arrestin activity EC50.

T1 sequence (P43220 24-463): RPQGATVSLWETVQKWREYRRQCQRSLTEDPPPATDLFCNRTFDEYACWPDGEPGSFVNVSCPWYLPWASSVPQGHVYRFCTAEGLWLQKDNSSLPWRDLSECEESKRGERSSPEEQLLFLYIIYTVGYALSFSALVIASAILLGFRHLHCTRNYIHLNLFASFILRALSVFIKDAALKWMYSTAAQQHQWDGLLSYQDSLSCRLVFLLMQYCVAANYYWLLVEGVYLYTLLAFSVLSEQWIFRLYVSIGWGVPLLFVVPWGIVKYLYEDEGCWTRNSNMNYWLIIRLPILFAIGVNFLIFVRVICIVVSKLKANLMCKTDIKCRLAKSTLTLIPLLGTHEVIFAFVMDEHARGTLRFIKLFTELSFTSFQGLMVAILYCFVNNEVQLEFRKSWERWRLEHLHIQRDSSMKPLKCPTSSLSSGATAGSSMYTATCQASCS

For the molecule `CCCCCCCCCCCCCCCC(=O)N[C@@H](CCC(=O)NCCCC[C@H](NC(=O)[C@H](CO)NC(=O)[C@@H]1CCCN1C(=O)[C@@H]1CCCN1C(=O)[C@@H]1CCCN1C(=O)[C@H](C)NC(=O)CNC(=O)[C@H](CO)NC(=O)[C@H](CO)NC(=O)[C@@H]1CCCN1C(=O)CNC(=O)CNC(=O)[C@H](C)NC(=O)[C@H](CC(C)C)NC(=O)[C@H](CC(C)C)NC(=O)[C@H](Cc1c[nH]c2ccccc12)NC(=O)[C@H](CC(N)=O)NC(=O)[C@@H](NC(=O)[C@H](Cc1ccccc1)NC(=O)[C@H](CCC(=O)O)NC(=O)C(C)(C)NC(=O)[C@H](C)NC(=O)[C@H](C)NC(=O)[C@H](CCC(N)=O)NC(=O)[C@H](CCCCN)NC(=O)[C@H](CC(=O)O)NC(=O)[C@H](CC(C)C)NC(=O)[C@H](Cc1ccc(O)cc1)NC(=O)[C@@H](NC(=O)[C@H](CO)NC(=O)[C@H](Cc1ccc(O)cc1)NC(=O)[C@H](CC(=O)O)NC(=O)[C@H](CO)NC(=O)[C@@H](NC(=O)[C@H](Cc1ccccc1)NC(=O)[C@@H](NC(=O)CNC(=O)[C@@H](CC(=O)O)NC(=O)CSCC(=O)NCCN1CCCCC1=O)[C@@H](C)O)[C@@H](C)O)[C@@H](C)CC)C(C)C)C(N)=O)C(=O)O` [Compound 218] (X6-[dD]GTFTSDYSIYLDKQAA[Aib]EFVNWLLAGGPSSGAPPPSK([γGlu-Palmitoyl])-NH2), the Emax was 96% on GLP-1R [1] and 19 to 23% at GIP-R. The EC50 was 0.1 to 1 nM on GLP-1R [1] (read-out: EC50 GLP-1R/nM) and more than 1000 nM at GLP-1R [2] (setting [3]).

In the case of `CCCCCCCCCCCCCCCC(=O)N[C@@H](CCC(=O)NCCCC[C@H](NC(=O)[C@H](CO)NC(=O)[C@@H]1CCCN1C(=O)[C@@H]1CCCN1C(=O)[C@@H]1CCCN1C(=O)[C@H](C)NC(=O)CNC(=O)[C@H](CO)NC(=O)[C@H](CO)NC(=O)[C@@H]1CCCN1C(=O)CNC(=O)CNC(=O)[C@H](C)NC(=O)[C@H](CC(C)C)NC(=O)[C@H](CC(C)C)NC(=O)[C@H](Cc1c[nH]c2ccccc12)NC(=O)[C@H](CC(N)=O)NC(=O)[C@@H](NC(=O)[C@H](Cc1ccccc1)NC(=O)[C@H](CCC(=O)O)NC(=O)C(C)(C)NC(=O)[C@H](C)NC(=O)[C@H](C)NC(=O)[C@H](CCC(N)=O)NC(=O)[C@H](CCCCN)NC(=O)[C@H](CC(=O)O)NC(=O)[C@H](CC(C)C)NC(=O)[C@H](Cc1ccc(O)cc1)NC(=O)[C@@H](NC(=O)[C@H](CO)NC(=O)[C@H](Cc1ccc(O)cc1)NC(=O)[C@H](CC(=O)O)NC(=O)[C@H](CO)NC(=O)[C@@H](NC(=O)[C@H](Cc1ccccc1)NC(=O)[C@@H](NC(=O)CNC(=O)[C@H](Cc1nn[nH]n1)NC(=O)CSCC(=O)NCCN1CCCCC1=O)[C@@H](C)O)[C@@H](C)O)[C@@H](C)CC)C(C)C)C(N)=O)C(=O)O` [Compound 223] (X6-[Ala(1H-tetrazol-5-yl)]GTFTSDYSIYLDKQAA[Aib]EFVNWLLAGGPSSGAPPPSK([γGlu-Palmitoyl])-NH2), the results for the maximal response (Emax) on GLP-1R [1] and on GIP-R were 101% and 91%, respectively. Further, the EC50 is less than 0.1 nM on GLP-1R [1] (read-out: EC50 GLP-1R/nM), 0.1 to 1 nM on GIP-R (read-out: EC50 GIP-R/nM) and 10 to 1000 nM at GLP-1R [2] (setting [3]).

As for `CCCCCCCCCCCCCCCC(=O)N[C@@H](CCC(=O)NCCCC[C@H](NC(=O)[C@H](CO)NC(=O)[C@@H]1CCCN1C(=O)[C@@H]1CCCN1C(=O)[C@@H]1CCCN1C(=O)[C@H](C)NC(=O)CNC(=O)[C@H](CO)NC(=O)[C@H](CO)NC(=O)[C@@H]1CCCN1C(=O)CNC(=O)CNC(=O)[C@H](C)NC(=O)[C@H](CC(C)C)NC(=O)[C@H](CC(C)C)NC(=O)[C@H](Cc1c[nH]c2ccccc12)NC(=O)[C@H](CC(N)=O)NC(=O)[C@@H](NC(=O)[C@H](Cc1ccccc1)NC(=O)[C@H](CCC(=O)O)NC(=O)C(C)(C)NC(=O)[C@H](C)NC(=O)[C@H](C)NC(=O)[C@H](CCC(N)=O)NC(=O)[C@H](CCCCN)NC(=O)[C@H](CC(=O)O)NC(=O)[C@H](CC(C)C)NC(=O)[C@](C)(Cc1ccc(O)cc1)NC(=O)[C@@H](NC(=O)[C@H](CO)NC(=O)[C@H](Cc1ccc(O)cc1)NC(=O)[C@H](CC(=O)O)NC(=O)[C@H](CO)NC(=O)[C@@H](NC(=O)[C@H](Cc1ccccc1)NC(=O)[C@@H](NC(=O)CNC(=O)[C@H](CCC(=O)O)NC(=O)CSCC(=O)NCCN1CCCCC1=O)[C@@H](C)O)[C@@H](C)O)[C@@H](C)CC)C(C)C)C(N)=O)C(=O)O` [Compound 225], the EC50 is 0.1 to 1 nM on GLP-1R [1] (read-out: EC50 GLP-1R/nM), 1 to 10 nM on GIP-R (read-out: EC50 GIP-R/nM) and more than 1000 nM at GLP-1R [2] (setting [3]). Moreover, the Emax on GIP-R was 70 to 80%.

On to `CCCCCCCCCCCCCCCC(=O)N[C@@H](CCC(=O)NCCCC[C@H](NC(=O)[C@H](CO)NC(=O)[C@@H]1CCCN1C(=O)[C@@H]1CCCN1C(=O)[C@@H]1CCCN1C(=O)[C@H](C)NC(=O)CNC(=O)[C@H](CO)NC(=O)[C@H](CO)NC(=O)[C@@H]1CCCN1C(=O)CNC(=O)CNC(=O)[C@H](C)NC(=O)[C@H](CC(C)C)NC(=O)[C@H](CC(C)C)NC(=O)[C@H](Cc1c[nH]c2ccccc12)NC(=O)[C@H](CC(N)=O)NC(=O)[C@@H](NC(=O)[C@H](Cc1ccccc1)NC(=O)[C@H](CCC(=O)O)NC(=O)C(C)(C)NC(=O)[C@H](C)NC(=O)[C@H](C)NC(=O)[C@H](CCC(N)=O)NC(=O)[C@H](CCCCN)NC(=O)[C@H](CC(=O)O)NC(=O)[C@H](CC(C)C)NC(=O)[C@H](Cc1ccc(O)cc1)NC(=O)[C@@H](NC(=O)[C@H](CO)NC(=O)[C@H](Cc1ccc(O)cc1)NC(=O)[C@H](CC(=O)O)NC(=O)[C@H](CO)NC(=O)[C@@H](NC(=O)[C@H](Cc1ccccc1)NC(=O)[C@@H](NC(=O)CNC(=O)[C@H](CCC(=O)O)NC(=O)CSCC(=O)NCC(=O)N1CCCCC1)[C@@H](C)O)[C@@H](C)O)[C@@H](C)CC)C(C)C)C(N)=O)C(=O)O` [Compound 226], for which the results for the Emax on GLP-1R [1] and at GIP-R were 89% and 17%, respectively. In addition, the EC50 was 1 to 10 nM on GLP-1R [1] (read-out: EC50 GLP-1R/nM), 100 to 1000 nM on GIP-R (read-out: EC50 GIP-R/nM) and more than 1000 nM at GLP-1R [2] (setting [3]).

Regarding `CCCCCCCCCCCCCCCC(=O)N[C@@H](CCC(=O)NCCCC[C@H](NC(=O)[C@H](CO)NC(=O)[C@@H]1CCCN1C(=O)[C@@H]1CCCN1C(=O)[C@@H]1CCCN1C(=O)[C@H](C)NC(=O)CNC(=O)[C@H](CO)NC(=O)[C@H](CO)NC(=O)[C@@H]1CCCN1C(=O)CNC(=O)CNC(=O)[C@H](C)NC(=O)[C@H](CC(C)C)NC(=O)[C@H](CC(C)C)NC(=O)[C@H](Cc1c[nH]c2ccccc12)NC(=O)[C@H](CC(N)=O)NC(=O)[C@@H](NC(=O)[C@H](Cc1ccccc1)NC(=O)[C@H](CCC(=O)O)NC(=O)C(C)(C)NC(=O)[C@H](C)NC(=O)[C@H](C)NC(=O)[C@H](CCC(N)=O)NC(=O)[C@H](CCCCN)NC(=O)[C@H](CC(=O)O)NC(=O)[C@H](CC(C)C)NC(=O)[C@H](Cc1ccc(O)cc1)NC(=O)[C@@H](NC(=O)[C@H](CO)NC(=O)[C@H](Cc1ccc(O)cc1)NC(=O)[C@H](CC(=O)O)NC(=O)[C@H](CO)NC(=O)[C@@H](NC(=O)[C@H](Cc1ccccc1)NC(=O)[C@@H](NC(=O)CNC(=O)[C@H](CCC(=O)O)NC(=O)CSCC(=O)NCCn1cccc(C)c1=O)[C@@H](C)O)[C@@H](C)O)[C@@H](C)CC)C(C)C)C(N)=O)C(=O)O` [Compound 232], the EC50 was 0.1 to 1 nM at GLP-1R [1] (EC50 GLP-1R/nM), 1 to 10 nM at GIP-R (EC50 GIP-R/nM) and more than 1000 nM at GLP-1R [2]. For the same molecule, the Emax worked out at 95% at GLP-1R [1] and 78% at GIP-R.
